“Also recorded” adds a separate entry of the source.
What was measured:
Tau = experiment: Western blot of Tau in N2a/AβPPswe cells; type: cell-based
Experimental: (§1) FIG. 6C is a western blot assay showing Tau and phosphorylated Tau (pTau) levels in N2a/AβPPswe treated with 25 nM THC, 2.5 nM THC, or 0.25 nM THC. Anti-Tau, anti-pTau and β-actin antibodies were used to detect Tau and pTau, and β-actin that served as the protein loading control.
(§2) FIG. 11C is a western blot assay showing Tau and phosphorylated Tau levels in N2a/AβPPswe treated as follows: untreated (CTRL, control), or 10^−5 M Melatonin with 2.5 nM THC, 10^−6 M Melatonin with 2.5 nM THC. Anti-Tau and anti-pTau antibodies were used to […] that served as the protein loading control.
(§3) Amyloid processing and ancillary amyloid protein effects were next tested. After stripping the Western, and restaining for AβPP, using anti-Tau (Chuanhai Cao, Tampa, Fla.), anti-pTau (Chuanhai Cao, Tampa, Fla.), and anti-β-actin antibodies (Cat #A54441, Sigma Aldrich, Merck KGaA; Darmstadt, Germany)) were used to detect Tau levels against a protein loading control (β-actin). After data was collected the membrane was stripped using a western blot striping buffer (Cat #21059, Thermo Fisher Scientific, Waltham, Mass.) and stained for AβPP using 6E10 antibody (Cat #803002, BioLegend, Inc., San Diego, Calif.). Anti-mouse secondary horseradish peroxidase (Cat #A9044, Sigma Aldrich, Merck KGaA; Darmstadt, Germany) secondary antibodies were used.

brain energy metabolism = settings: repeated high doses of THC (10 mg/kg body weight); rat brains; cited from earlier work
Aβ peptide = Aβ peptide (Homo sapiens, UniProt P05067); experiment: Western blot of aggregated Aβ peptide / Aβ monomer; type: biochemical; settings: 100 nM, 10 nM, 1 nM THC; FIGS. 4A, 4B
Experimental: FIG. 4A is a western blot showing aggregated Aβ peptide with and without THC treatment.
FIG. 4B is a graph showing the relative quantity of Aβ monomer in the anti-aggregation study described in FIG. 4A. Cells were untreated for the aggregation control or treated with and 100 nM THC, 10 nM THC, and 1 nM THC.
In untreated samples, Aβ peptide increased in intensity for the first 20 minutes, followed by a plateauing of fluorescence at around 30 minutes, at which time the intensity remained constant for the duration of the study. […] Therefore, THC's direct interaction with the Aβ peptide will not dampen an immune response to clear the Aβ peptide. Further analysis with western blot was performed measuring the anti-aggregation properties of THC with Aβ peptide.

Aβ1-40 peptide = biological target: T1, Aβ1-40 peptide (Homo sapiens, UniProt P05067); experiment: ThT assay of Aβ aggregation; type: biochemical; settings: THC 0.25-250 nM; Aβ1-40 1 μM; FIG. 3A
T1 construct: purchased Biomer Technology, Pleasanton, Calif
Experimental: A ThT assay was conducted to examine the interaction between THC and Aβ, as ThT incorporates into Aβ when the amyloid protein aggregates, indicating whether there is a direct interaction between THC and Aβ aggregation.
Hexafluoroisopropanol-(HFIP) pretreated Aβ1-40 peptide (Biomer Technology, Pleasanton, Calif.). THC solution was prepared at concentration of 250 nM, 25 nM, 2.5 nM, and 0.25 nM in thioflavin T (ThT) (1.6 μg/mL dissolved in 20 mM Tris-HCL). The THC-ThT was added into black 96 well plates. Unaggregated Aβ peptide solution was thawed, diluted, and immediately added to wells, making the final concentration of Aβ1-40 at 1 μM. Control groups were setup as: 1) aggregation control; 2) control with ThT buffer only; and 3) Tris-HCl buffer only. Plate was mixed and fluorescence was read at 482 nm with excitation 440 nm with Biotek All-in-One plate reader. Fluorescence was screened for 2 hours with 5-minute intervals.

Aβ in N2a/AβPPswe cells = experiment: Sandwich ELISA of Aβ in N2a/AβPPswe cells treated with THC and CB1 inhibitor rimonabant; type: cell-based, human; settings: 25 nM THC with no rimonabant; 36 hour and later time points; FIG. 2
Experimental: The mechanism of action was elucidated for THC's effect on Aβ levels using a sandwich ELISA assay. N2a/AβPPswe cells, as discussed in Example 1, were suspended to 2×10^5/mL, 3 mL plated into each well, and grown in DMEM with 10% fetal bovine serum, 100 U/mL penicillin, 100 μg/mL streptomycin, and 400 μg/mL G418 (Invitrogen), at 37° C. in the presence of 5% CO2. N2a/AβPPswe cells were subcultured using trypsin, and pipetted numerous times to ensure cells were separated into individual cells. Cells were counted, as provided in Example 1, and proper amount of cell medium and fresh medium was added into new flasks according to the ratio of dilution. Pipetting was performed 10 times to homogenize cells, and 3 mL of cells were seeded into medium into each 6 well plate. When one pipette was used up, the cells were mixed in the flask before using them for the next pipette. Compounds were suspended in DMSO.
12 hours after cells were plated, cells were treated with 25 nM of Δ9-THC (T4764-1ML Sigma Aldrich, Merck KGaA; Darmstadt, Germany), with the known inhibitor of the CB1 receptor, rimonabant, at 0 μM, 100 μM, 10 μM, 1 μM, or 0.1 μM rimonabant. Untreated N2a/AβPPswe cells were used as a control. Treatment was then washed out, i.e. the medium was then removed from the cultures and 3 mL of media containing the treatment compounds were added. Cells were collected at 12 hours afterwards, 48 hours afterwards, 60 hours afterwards, and 72 hours afterwards, and ELISA was conducted on the cells.
ELISA assay was performed on the cells using 50 μL of goat anti-PWT1-42 antibody solution, which was incubated overnight, followed by a 1-hour incubation with 0.1% I-block buffer. The tissue culture supernatant was diluted 1:10 with diluent buffer containing a protease inhibitor. Standards were prepared by serial dilution, as provided in Example 1. The plate was washed and 50 μL of sample or standard was added with triplication. 50 μL of both Biosource 40/42 (HS) (primary antibody) Aβ and a standard solution was added to each well and incubated for 3 hours followed by 5× wash with PBST. […]

[1] = system: phosphorylated Tau (pTau); experiment: Western blot of phosphorylated Tau in N2a/AβPPswe cells; type: cell-based
Experimental: as §1, §2, §3

[2] = in vivo; cited from earlier work

T1 sequence (P05067 672-711): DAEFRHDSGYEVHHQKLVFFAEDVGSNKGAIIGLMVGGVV
Aβ peptide, sequence (P05067 672-711 limits assumed): as the sequence (P05067 672-711) above

Structure (SMILES): CCCCCc1cc(O)c2c(c1)OC(C)(C)[C@@H]1CCC(C)=C[C@@H]21 [THC, Δ9-tetrahydrocannabinol]
- Tau level among THC concentrations (Tau; 2.5 nM THC, FIGS. 6C, 7): lowest level of Tau
- Tau protein levels (standardized to β-actin), THC alone (Tau; 25 nM, 2.5 nM, 0.25 nM THC, FIG. 7): lowers the production of Tau; also recorded: reduces Tau protein levels
- Brain energy metabolism (brain energy metabolism): dampen the brain energy metabolism
- Relative quantity of Aβ monomer (Aβ peptide): increases monomeric Aβ; also recorded: higher relative % of Aβ monomer
- Thioflavin T fluorescence intensity / Aβ aggregation (Aβ1-40 peptide): lowers Aβ aggregation; also recorded: dose-dependent decrease; also recorded: inhibits Aβ40 aggregation
- Aβ levels (Aβ in N2a/AβPPswe cells): significantly lower Aβ; also recorded: marked decreases
- Ratio of pTau:Tau among THC concentrations ([1]; 2.5 nM THC, FIG. 8): peak of pTau:Tau ratio
- Phosphorylated Tau levels, THC alone ([1]; 25 nM, 2.5 nM, 0.25 nM THC, FIGS. 6C, 6D): reduction by THC in a dose-dependent manner; also recorded: lowers the phosphorylation of tau in a dose dependent manner; also recorded: decreases phosphorylated Tau
- Ratio of phosphorylated Tau to Tau, THC alone ([1]; 25 nM, 2.5 nM, 0.25 nM THC, FIGS. 8, 13): increase the ratio of pTau:Tau; also recorded: increase in phosphorylated Tau; also recorded: increases phosphorylated Tau
- Bioavailability [2]: 30%

Source: patent US11446276B2, “Extreme low dose THC as a therapeutic and prophylactic agent for Alzheimer's disease” (University of South Florida, priority 2015, dated 2022)
